The term EC50 denotes the midpoint of the concentration-response curve.

In this assay the test system is HCT116 colon cancer cells. As to the kind of experiment: KSP cellular assay (phospho-histone H3 / MPM2 immunofluorescence). Type of assay: cell-based. The conditions noted are these: Homo sapiens, HCT-116, 16 hours with drug, percent of cells staining positive for Phos-Histone H3 (ser10) / Phos-MPM2. The protocol: HCT116 colon cancer cells were grown in DMEM:F12 media with 10% heat inactivated FBS at 37 degrees with 5% CO2. Cells were plated at 7,500 cells per well in PDL coated 384-well tissue culture plates. 6 hours later media was removed and new media containing drug was added. Cells were incubated with drug for 16 hours. All further steps were performed at room temperature in the dark. Cells were fixed with 25 ul/well Prefer fixation solution plus 250 nM Hoechst dye and incubated for 30 minutes. The fixation solution was removed and cells were washed with PBS. Cells were then permeabilized with 25 uliwell 0.2% Triton-X in PBS and incubated for 10 minutes. Cells were washed with PBS and then incubated with 25 ul/well PBS containing 3% FBS for 30 minutes. Cells were then stained overnight at 4 degrees with 25 uliwell antibody solution in PBS plus 3% FBS. Antibodies used were Phos-Histone H3 (ser10)-Alexa Flur 488 Conjugate and Phos-MPM2 Texas Red Conjugate. Cells were washed with PBS and then immunofluorescence images captured with HT Pathway microscope. The percent of cells staining positive was calculated and EC50 values for the compounds of the invention that were tested were determined using Excel XLfit.
EC50 Determinations: Dose-response curves were plotted from inhibition data generated each in duplicate, from 8 point serial dilutions of inhibitory compounds. Concentration of compound was plotted against enzyme activity (OD reading). To generate EC50 values, the dose-response curves were then fitted to a standard sigmoidal curve and EC50 values were derived by nonlinear regression analysis.

For the compound `CC(=O)N1N=C(c2cc(F)ccc2F)OC12CCOc1ccccc12` (centres unmarked) [compound 105], the EC50 was over 1000 nM.

`CC(=O)N1N=C(c2cc(F)ccc2F)OC12CCSc1ccccc12` (centres unmarked) [compound 102] had an EC50 of over 1000 nM.

As for `CC(=O)N1N=C(c2cc(F)ccc2F)OC12CCCc1sccc12` (centres unmarked) [compound 101], the EC50 was over 1000 nM.

Take `CC(=O)N1N=C(c2cc(F)ccc2F)OC12COc1ccccc12` (centres unmarked) [compound 104]: the EC50 is over 1000 nM.

Turning to `CC(=O)N1N=C(c2cc(F)ccc2F)OC12CCCc1ccccc12` (centres unmarked) [compound 103], the EC50 was over 1000 nM.

The record behind these values is US20110171172A1, “COMPOUNDS FOR INHIBITING KSP KINESIN ACTIVITY” (priority 2007, published 2011).
